Test results taken from ChEMBL document CHEMBL1201862, “PubChem BioAssay data set” (2004).
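Growth conditions: 96-well plates. Treatment: test compound, 48 hours, 5 concentrations. Analysis: linear interpolation between bracketing concentrations; unreached endpoints set to highest concentration. GI50 = concentration required for 50% inhibition of growth.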 The source made the active and inactive calls. Rule as the data show it: active = GI50 up to about 1.1 µM and inactive = higher.

How the values were obtained:
Assay in all cases: NCI anticancer screen, dose series, 48 h
[1] = tested on: Malme-3M
[2] = tested on: U-251
[3] = tested on: UO-31
[4] = tested on: HL-60
[5] = tested on: LOX IMVI
[6] = tested on: OVCAR-4
[7] = tested on: HT-29
[8] = tested on: EKVX
[9] = tested on: CCRF-CEM
[10] = tested on: TK-10
[11] = tested on: HOP-92
[12] = tested on: SK-MEL-2
[13] = tested on: A498
[14] = tested on: OVCAR-8
[15] = tested on: HOP-62
[16] = tested on: SK-OV-3

Measured: GI50

c1ccc(-c2nnc3nn4c(-c5ccccc5)cnnc4c3c2-c2ccccc2)cc1
inactive: [1] 42.5 µM | [2] 32.6 µM | [3] 23.2 µM | [4] 3.12 µM | [5] > 100 µM | [6] 12.9 µM | [7] 95.3 µM | [8] 19.7 µM | [9] > 100 µM | [10] 19.2 µM | [11] 59.8 µM | [12] > 100 µM | [13] > 100 µM | [14] 76.4 µM

C[C@H](OCc1ccccc1)C(=O)N1CCS(=O)(=O)N2CCC[C@H]2C1=O
inactive: [15] > 100 µM | [1] > 100 µM | [2] > 100 µM | [3] > 100 µM | [4] > 100 µM | [16] > 100 µM | [5] > 100 µM | [6] > 100 µM | [7] > 100 µM | [8] > 100 µM | [9] > 100 µM | [10] > 100 µM | [11] > 100 µM | [13] > 100 µM | [14] > 100 µM

O=[N+]([O-])/C=C/c1ccc(Cl)cc1Cl
inactive: [15] 14.2 µM | [1] 17.8 µM | [2] 5.66 µM | [3] 16.2 µM | [4] 5.26 µM | [6] 19.8 µM | [7] 5.77 µM | [9] 3.62 µM | [10] > 10 µM | [11] 15.3 µM | [12] 20.3 µM | [14] 25.4 µM

CCN1CCC(O)(c2ccc(Cl)cc2)C(C(=O)c2ccc(Cl)cc2)C1 (configuration not stated)
inactive: [2] > 100 µM | [3] 35.2 µM | [4] > 100 µM | [16] > 100 µM | [5] > 100 µM | [6] > 100 µM | [7] > 100 µM | [8] > 100 µM | [9] 49.5 µM | [10] > 100 µM | [11] > 100 µM | [12] > 100 µM | [13] > 100 µM | [14] > 100 µM

O=C1[C@@H]2C3SC(c4ccccc43)[C@@H]2C(=O)N1c1ccccc1
inactive: [15] > 100 µM | [1] > 100 µM | [2] > 66.4 µM | [3] > 100 µM | [4] > 100 µM | [16] > 83.4 µM | [5] > 100 µM | [7] > 100 µM | [8] > 100 µM | [9] > 100 µM | [10] 97.1 µM | [11] > 64.1 µM | [12] > 100 µM | [13] > 100 µM | [14] > 100 µM

COc1ccc(/C=N/N=C(\N)NO)cc1OC
inactive: [15] 31.9 µM | [1] 75.2 µM | [2] 38.1 µM | [3] 28.1 µM | [4] 63.1 µM | [16] 45.1 µM | [5] 30.3 µM | [6] 99.1 µM | [7] 28.7 µM | [8] 26.2 µM | [9] 49.7 µM | [10] 56.4 µM | [11] 84.7 µM | [12] 58.5 µM | [14] 38.4 µM

CCC12CCCN(Cc3ccccc3)C1c1c(n(C)c3ccccc13)C(C(=O)OC)C2 (configuration not stated)
inactive: [15] 129 µM | [1] > 239 µM | [2] 117 µM | [4] 87.3 µM | [16] 236 µM | [5] 158 µM | [7] 73.1 µM | [8] > 239 µM | [9] 143 µM | [10] > 239 µM | [11] 79.8 µM | [12] > 239 µM | [14] 169 µM

Cc1ccccc1C(C#N)/C(=N/NC(=O)C(=O)NN)C(=O)Nc1cccc(C(F)(F)F)c1 (configuration not stated)
inactive: [15] > 100 µM | [1] > 100 µM | [2] > 100 µM | [3] > 100 µM | [4] > 100 µM | [6] > 100 µM | [7] > 100 µM | [8] > 100 µM | [9] > 100 µM | [10] > 100 µM | [11] > 100 µM | [12] > 100 µM | [13] > 100 µM | [14] > 100 µM

CN1C(=O)C(Cl)(C(Cl)(Cl)S(=O)(=O)O)C(=O)c2ccccc21.c1ccncc1 (configuration not stated)
inactive: [15] > 100 µM | [1] 33.2 µM | [2] > 100 µM | [3] 91.2 µM | [4] > 100 µM | [16] > 100 µM | [5] > 100 µM | [6] > 100 µM | [7] 25.7 µM | [8] > 100 µM | [9] > 100 µM | [10] > 100 µM | [11] > 100 µM | [13] > 100 µM | [14] > 100 µM
